pEC50: −log10 of the molar value.
Assays:
Type in all cases: cell-based
[1] = biological target: T1, M1 receptor (Homo sapiens, UniProt P11229); test: IP-One HTRF assay in CHO-M1 (control)
T1 construct: host or cells: CHO-k1
T1 sequence (P11229 1-460): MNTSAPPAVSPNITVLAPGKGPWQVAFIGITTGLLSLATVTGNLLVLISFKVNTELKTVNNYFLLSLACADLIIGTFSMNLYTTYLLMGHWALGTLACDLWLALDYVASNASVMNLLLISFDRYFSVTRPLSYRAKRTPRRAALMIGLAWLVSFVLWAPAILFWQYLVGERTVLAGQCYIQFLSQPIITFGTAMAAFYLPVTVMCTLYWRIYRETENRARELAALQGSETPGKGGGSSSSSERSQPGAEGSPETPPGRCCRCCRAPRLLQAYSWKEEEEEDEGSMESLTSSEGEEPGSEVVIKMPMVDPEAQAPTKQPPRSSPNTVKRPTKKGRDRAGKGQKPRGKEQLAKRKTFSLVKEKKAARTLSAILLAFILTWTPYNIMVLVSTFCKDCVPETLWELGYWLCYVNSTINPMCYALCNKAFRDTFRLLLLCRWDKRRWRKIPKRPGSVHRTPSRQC
Description: (§1) Figure 3 IP-One HTRF® assay measuring Gq activation. Concentration-response curves of 1a, 7c (racemic), L-Trp, L-Phe, DL43, DL126, DL24, DL22, DL132 and DL130 on (A) CHO-139 and (B) CHO-M1 in the IP-One assay (final conc of LiCl = 20 mM). The dotted line represent the [IP1] response from (A) 10 μM 1a and (B) 1 μM carbachol, which is an agonist for the muscarinic acethylcholine receptor M1 that activates the Gq coupled pathway. The graphs are means ± SEM based on three independent experiments performed in triplicates.
(§2) The IP-One assay was performed as described in the work by Thomsen et al.[28], with few modifications. Breifly, CHO-139 and CHO-M1 were detached and re-suspended to a concentration of 10 million cells/mL. 5 μL 2x concentrated compound (+40 mM LiCl) and 5 μL cell suspension (50,000 cells/well) was mixed. The plate was sealed and incubated at 37 °C for 1 hour. Next, 10 μL detection reagents (lysis buffer containing 2.5% Eu^3+-anti-IP1 antibody and 2.5% IP1-d2) was added and the plate was incubated for 1 hour at room temperature. The plate was read on an Envision (PerkinElmer, Waltham, MA, USA). The time resolved-fluorescence resonance energy transfer (TR-FRET) 665 nm/615 nm ratio, which is inversely proportional to the inositol monophosphate (IP1) accumulation, was used to determine the concentration of the IP1 response.

[2] = biological target: T2, GPR139 (Homo sapiens, UniProt Q6DWJ6); test: cAMP dynamic 2 assay measuring Gi activation (forskolin) in CHO-139; conditions: CHO-139
T2 sequence (Q6DWJ6 1-353): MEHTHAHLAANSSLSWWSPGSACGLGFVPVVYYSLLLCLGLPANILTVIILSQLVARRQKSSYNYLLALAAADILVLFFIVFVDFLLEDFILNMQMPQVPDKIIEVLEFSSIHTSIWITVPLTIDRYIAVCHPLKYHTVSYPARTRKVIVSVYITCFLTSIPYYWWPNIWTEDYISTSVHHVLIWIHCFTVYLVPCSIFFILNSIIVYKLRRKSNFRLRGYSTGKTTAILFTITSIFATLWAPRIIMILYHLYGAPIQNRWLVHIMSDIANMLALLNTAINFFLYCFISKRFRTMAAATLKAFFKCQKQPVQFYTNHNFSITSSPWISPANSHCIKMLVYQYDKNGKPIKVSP
Description: (§3) The cAMP assay was performed as described in the work by Thomsen et al.[28] with few modifications. Breifly, CHO-139 and CHO-M1 was detached and resuspended to a concentration of 1 million cells/mL. 5 μL 2x concentrated compound (for Gs: +100 μM IBMX and for Gi: +100 μM IBMX +10 μM forskolin (Fsk)) and 5 μL cell suspension (5,000 cells/well) was mixed. The plate was sealed and incubated at room temperature for 30 min. Next, 10 μL detection reagents (lysis buffer containing 2.5% Eu^3+-anti-cAMP antibody and 2.5% cAMP-d2) was added and the plate was incubated for 1 hour at room temperature. The plate was read on an Envision (PerkinElmer, Waltham, MA, USA). The TR-FRET 665 nm/615 nm ratio, which is inversely proportional with the cAMP production, was used to determination the concentration of the cAMP response. […]
Supplementary Figure 2. cAMP dynamic 2 assay measuring Gi activation. 5,000 cells/well of CHO-139 (pink bars) or CHO-M1 (blue bars) cells are
incubated with the indicated compounds for 30 min at room temperature in the presence of 50 µM IBMX and 5 uM Fsk (expect “buffer (-Fsk) where only 50
µM IBMX is present). The straight line indicate the level of cAMP upon activation with 5 uM Fsk, and the grey area ±10% of the response. The responses are
one representative out of at two independent experiments performed in triplicates. Data points are means ± SD.

[3] = biological target: T2, GPR139; test: cAMP dynamic 2 assay measuring Gs activation in CHO-139
Description: as §3
Supplementary Figure 1. cAMP dynamic 2 assay measuring Gs activation. 5,000 cells/well of CHO-139 (pink bars) or CHO-M1 (blue bars) cells are
incubated with the indicated compounds for 30 min at room temperature in the presence of 50 µM IBMX. 5 µM and 10 µM forskolin (Fsk) serves as positive
controls. The responses are one representative out of at two independent experiments performed in triplicates. Data points are means ± SD. […]
Data points are means ± SD.

[4] = biological target: T2, GPR139; test: IP-One HTRF assay measuring Gq activation in CHO-139; conditions: IP-One HTRF assay, CHO-139, 20 mM LiCl
Description: as §1, §2

Row | IP1 response in CHO-M1 cells [1] | pEC50 [4] | SMILES | Inhibition of the cAMP response induced by 5 μM forskolin (Gi), in words [2] | Gs response (cAMP) [3]
1 | no response is seen in CHO-M1 cells | 5.38 | O=C(CN1CCCc2ccccc21)NNC(=O)c1ccc2c(c1)OCO2 [DL22] | none of the tested compounds were able to inhibit the cAMP response | None of the tested compounds induced Gs response
2 | no response is seen in CHO-M1 cells | 6.12 | COc1cc(OC)cc(C(=O)NNC(=O)C2CCCc3ccccc32)c1 (stereo not drawn) [DL24] | none of the tested compounds were able to inhibit the cAMP response | None of the tested compounds induced Gs response
3 | no response is seen in CHO-M1 cells | 5.25 | O=C(Cc1cccc2ccccc12)NNC(=O)c1ccc2c(c1)OCO2 [DL126] | none of the tested compounds were able to inhibit the cAMP response | None of the tested compounds induced Gs response
4 | no response is seen in CHO-M1 cells | 5.30 | O=C(CNC(=O)c1ccc2c(c1)OCO2)NC1CCSc2ccc(F)cc21 (stereo not drawn) [DL130] | none of the tested compounds were able to inhibit the cAMP response | None of the tested compounds induced Gs response
5 | no response is seen in CHO-M1 cells | 5.38 | O=C(NCC(=O)N1CCCC1c1ccccc1)c1ccc2c(c1)OCO2 (stereo not drawn) [DL132] | none of the tested compounds were able to inhibit the cAMP response | None of the tested compounds induced Gs response

Row | SMILES | IP1 response in CHO-M1 cells [1] | pEC50 [4] | Inhibition of the cAMP response induced by 5 μM forskolin (Gi), in words [2] | Gs response (cAMP) [3]
6 | CCn1c(C)nc2cc(C(=O)NNC(=O)Cc3cccc4ccccc34)ccc21 [DL43] | no response is seen in CHO-M1 cells | 5.02 | none of the tested compounds were able to inhibit the cAMP response | None of the tested compounds induced Gs response
